Data on 8 molecules can be found in ChEMBL document CHEMBL1201862, “PubChem BioAssay data set” (2004).

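Exposure lasted 48 hours, with cells grown in 96-well plates and compounds tested at five concentrations. Abbreviation: GI50, concentration required for 50% inhibition of growth.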 Activity calls are given as the source filed them. No stated cut-off is given here; in the data, active = GI50 up to about 1.1 µM and inactive = higher. Where only a bound is given, the exact number is not on record here.

Among the test systems are ACHN; SNB-75; KM12; RXF 393; A498; HOP-62; HCT-15; SK-OV-3; SR; UACC-257; LOX IMVI; TK-10; A549; BT-549; Malme-3M; NCI-H23; NCI-H460; OVCAR-5; MDA-MB-435; UACC-62.
What all share (assay): growth of human tumour cells (NCI), 48 h

Take `CO/N=C(\C(=O)Nc1cncs1)c1csc(NC(c2ccccc2)(c2ccccc2)c2ccccc2)n1`: the GI50 with ACHN is > 10 µM (inactive); in the test with SNB-75, 9.95 µM (inactive); in the test with KM12 it was 9.4 µM (inactive); in the test on RXF 393 it was 9.55 µM (inactive); with A498 it was > 10 µM (inactive); in the test on HOP-62, > 10 µM (inactive). Besides, the GI50 was above 10 µM in the test on HCT-15; > 10 µM (inactive) in the test on SK-OV-3; 4.12 µM (inactive) with SR; > 10 µM (inactive) in the test with UACC-257; 7.21 µM (inactive) in the test with LOX IMVI; > 10 µM (inactive) with TK-10. Further, the GI50 is 3.84 µM (inactive) with A549; > 10 µM (inactive) in the test with BT-549; > 10 µM (inactive) in the test with Malme-3M; > 10 µM (inactive) in the test on NCI-H23; 4.56 µM (inactive) in the test with NCI-H460; > 10 µM (inactive) with OVCAR-5.
Turning to `COc1cc2c(cc1C)NC(=O)/C2=C\c1cccnc1`, the GI50 with ACHN is 26.9 µM (inactive); in the test on SNB-75 it was 17.9 µM (inactive); in the test with KM12 it was 13.6 µM (inactive); in the test with RXF 393, 17.4 µM (inactive); with A498 it was 10.3 µM (inactive); in the test with HOP-62, 22.4 µM (inactive). In addition, the GI50 in the test on HCT-15 is 16.4 µM; with SK-OV-3, 16.3 µM (inactive); with MDA-MB-435, 13.7 µM (inactive); in the test with UACC-257, 13.1 µM (inactive); in the test with LOX IMVI, 18.7 µM (inactive); in the test with TK-10 it was 14.9 µM (inactive). The GI50 in the test with A549 is 21.3 µM (inactive); in the test with BT-549, 21.9 µM (inactive); in the test with Malme-3M, 15 µM (inactive); in the test with NCI-H23 it was 10.8 µM (inactive); in the test with NCI-H460, 22.6 µM (inactive); in the test with OVCAR-5, 17.6 µM (inactive).
Take `CCCc1cc(=O)oc2c3c(c4c(c12)OC(C)(C)CC4)O[C@H](C)[C@@H](C)[C@H]3O`: the GI50 in the test with SNB-75 is 16.4 µM (inactive); in the test on KM12, 12.8 µM (inactive); in the test with RXF 393, 21.3 µM (inactive); with HOP-62 it was 16.6 µM (inactive); in the test on HCT-15, 13.4 µM; with SK-OV-3, 17.5 µM (inactive). Also, the GI50 in the test on MDA-MB-435 was 11.5 µM (inactive); in the test with UACC-257 it was 14.8 µM (inactive); with LOX IMVI it was 14.8 µM (inactive); in the test on A549, 20 µM (inactive); with BT-549 it was 13.4 µM (inactive); in the test with Malme-3M, 21.9 µM (inactive). Also, the GI50 in the test with NCI-H23 was 16 µM (inactive); with NCI-H460 it was 19 µM (inactive); in the test on UACC-62 it was 14.1 µM (inactive); in the test with OVCAR-5 it was 16.7 µM (inactive).
As to `CN(Cc1cnc2c(n1)C(N)=NN(N)N2)c1ccc(C(=O)NC(CCP(=O)(O)O)C(=O)O)cc1` (centres undefined), the GI50 in the test with ACHN is 2.17 µM (inactive); in the test on SNB-75, 7.01 µM (inactive); with KM12, 5.14 µM (inactive); in the test on RXF 393, 6.22 µM (inactive); in the test with A498, 36.5 µM (inactive); in the test on HOP-62, > 100 µM (inactive). In addition, the GI50 was 6.14 µM in the test with HCT-15; > 100 µM (inactive) in the test with SK-OV-3; 3.95 µM (inactive) in the test with MDA-MB-435; > 100 µM (inactive) in the test on UACC-257; 0.637 µM (active) with LOX IMVI; > 100 µM (inactive) with TK-10. For the same molecule, the GI50 in the test on A549 was 2.43 µM (inactive); in the test with BT-549, 16 µM (inactive); in the test with Malme-3M it was > 23.8 µM (inactive); with NCI-H23, 14.9 µM (inactive); in the test on NCI-H460, 1.87 µM (inactive); in the test with UACC-62 it was 1.78 µM (inactive).
Regarding `Cc1cccc2c1C(=O)/C(=C/c1ccccc1C(=O)O)C2`, the GI50 is > 100 µM (inactive) with ACHN; 85.3 µM (inactive) in the test with SNB-75; > 100 µM (inactive) with KM12; > 100 µM (inactive) with RXF 393; > 100 µM (inactive) with A498; > 100 µM (inactive) with HOP-62. The GI50 in the test with HCT-15 is above 100 µM; in the test with MDA-MB-435 it was > 100 µM (inactive); in the test on UACC-257 it was > 100 µM (inactive); in the test with LOX IMVI it was > 100 µM (inactive); with TK-10 it was > 100 µM (inactive); in the test with A549 it was > 100 µM (inactive). In addition, the GI50 with BT-549, in the test on Malme-3M, in the test with NCI-H23, in the test with NCI-H460, in the test on UACC-62 and with OVCAR-5 was > 100 µM (inactive) each time.
`CC(C)c1cc(C(C)C)c(S(=O)(=O)N/N=C2\CC3CCC2(C)C3(C)C)c(C(C)C)c1` (centres undefined): the GI50 in the test with ACHN was 15 µM (inactive); in the test with KM12, 36.1 µM (inactive); in the test with RXF 393, 11.7 µM (inactive); in the test on A498 it was 0.0222 µM (active); with HOP-62 it was 74.8 µM (inactive); with HCT-15, 46 µM. For the same molecule, the GI50 in the test on SK-OV-3 was 55.3 µM (inactive); with MDA-MB-435 it was 34.8 µM (inactive); in the test with UACC-257, 4.84 µM (inactive); in the test with TK-10, 38.8 µM (inactive); with A549 it was 23.6 µM (inactive); in the test on BT-549 it was > 100 µM (inactive). The GI50 in the test on Malme-3M was 25.5 µM (inactive); with NCI-H23 it was 17.4 µM (inactive); in the test with UACC-62, 37.3 µM (inactive); with OVCAR-5, 48 µM (inactive).
`COC(=O)C(C)Sc1nc2cc(Cl)ccc2s1` (centres undefined): the GI50 in the test with ACHN, in the test with SNB-75, in the test with KM12, in the test with RXF 393, with A498 and in the test with HOP-62 was > 100 µM (inactive) throughout. Further, the GI50 in the test on HCT-15 is above 100 µM; in the test with SK-OV-3 it was > 100 µM (inactive); in the test with MDA-MB-435, > 100 µM (inactive); with UACC-257, > 100 µM (inactive); in the test with A549 it was > 100 µM (inactive); in the test on BT-549, > 100 µM (inactive). The GI50 in the test on Malme-3M, in the test on NCI-H23, in the test on NCI-H460, in the test on UACC-62 and in the test on OVCAR-5 was > 100 µM (inactive) each time.
For `Cc1ccc(O)cc1.Cc1cccc(O)c1.Cc1ccccc1O` [CRESOL], the GI50 with ACHN was > 100 µM (inactive); in the test with KM12, > 100 µM (inactive); in the test on RXF 393, > 100 µM (inactive); in the test with A498, > 100 µM (inactive); in the test on HOP-62 it was > 100 µM (inactive); in the test with HCT-15, above 100 µM. For the same molecule, the GI50 in the test on SK-OV-3, with MDA-MB-435, in the test with UACC-257, in the test with LOX IMVI, with TK-10 and in the test on A549 was > 100 µM (inactive) each time. Further, the GI50 is > 100 µM (inactive) in the test on BT-549; 8.61 µM (inactive) in the test with Malme-3M; > 100 µM (inactive) in the test with NCI-H23; > 100 µM (inactive) in the test with NCI-H460; 88.3 µM (inactive) in the test on UACC-62; > 100 µM (inactive) with OVCAR-5.
